Measured values: patent publication US6841519B1, “Isoxazoline derivatives and herbicides containing the same as the active ingredient” (Kumiai Chemical Industry Co., Ltd., priority 1999, dated 2005)

Key:
Type in all cases: in vivo
[1] = system: Setaria viridis (L.) Beauv. (Se); assay: Test for herbicidal effect by upland field soil treatment (Test Example 2), Se
Summary of the method: (§1)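 Pre-emergence soil treatment: wettable powder diluted in water and sprayed on soil just sown with Ec and Se seeds, delivering 100 g active ingredient per 10 ares in 100 liters per 10 ares. Herbicidal effect was rated against a fixed scale 21 days later, after greenhouse growth.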

[2] = system: Echinochloa oryzicola Vasing. (Eo); assay: Test for herbicidal effect by paddy field soil treatment (Test Example 1); details: application amount (active ingredient) 100 g/10 a, examined at the 21st day from the treatment, index per Table 40
Summary of the method: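 Scored on a standard scale at day 21 in the greenhouse: herbicidal effect of wettable powder applied to flooded water (3 cm depth) at 100 g a.i./10 ares, one day after sowing Eo into puddled paddy soil.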

[3] = system: Monochoria vaginalis Presl (Mo); assay: Test for herbicidal effect during breeding period by paddy field water treatment (Test Example 5), Mo; details: paddy field water treatment at 1-leaf stage, 25 g/10 a active ingredient, 30th day
Description: (§2) [table] <Test Example 5> Test For Herbicidal Effect During Breeding Period By Paddy Field Water Treatment A paddy field soil was filled in a plastic pot of 100 cm^2 and subjected to puddling. Seeds of Monochoria vaginalis Presl (Mo) and Scirpus juncoides Roxb. subsp. juncoides Roxb. (Sc) were sowed; water was filled in a depth of 3 cm; and breeding was made. When Mo reached a 1-leaf stage and Sc reached a 2-leaf stage, wettable powders produced in accordance with the Formulation 1 were diluted with water and dropped on the water surface. […] Then, breeding was made in a greenhouse. At the 30th day from the treatment, the herbicidal effect of each wettable powder was examined in accordance with the standard shown in Table 40.

[4] = system: Echinochloa crus-galli (L.) Beauv. var. crusgalli (Ec); assay: Test for herbicidal effect by upland foliage treatment (Test Example 3); details: 100 g/10 a active ingredient, examined at 14th day
Summary of the method: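 Scored 14 days post-spray against a graded standard: greenhouse-grown Ec, 2 weeks old in upland soil, received whole-foliage application of diluted wettable powder (100 g active ingredient per 10 ares, spray volume 100 L per 10 ares).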

[5] = system: Echinochloa crus-galli (L.) Beauv. var. crusgall (Ec); assay: Test for herbicidal effect by upland field soil treatment (Test Example 2), Ec
Summary of the method: as §1

[6] = system: Scirpus juncoides Roxb. subsp. juncoides Roxb. (Sc); assay: Test for herbicidal effect during breeding period by paddy field water treatment (Test Example 5), Sc; details: paddy field water treatment at 2-leaf stage, 25 g/10 a active ingredient, 30th day
Description: as §2

[7] = application amount (active ingredient) 100 g/10 a, examined at the 21st day from the treatment, index per Table 40
[8] = 100 g/10 a active ingredient, examined at 21st day

Compound | Herbicidal effect to Se [1, 7] | Herbicidal effect to Eo [2] | Herbicidal effect to Mo [3] | Herbicidal effect to Ec [4] | Herbicidal effect to Ec [5, 7] | Herbicidal effect to Sc [6] | Herbicidal effect to Se [1, 8] | Herbicidal effect to Ec [5, 8]
CC1(C)CC(S(=O)(=O)Cc2ccccc2C(F)(F)F)=NO1 [Compound 1-157] | 5 (A herbicidal effect or phytotoxicity of 90% or more) | 5 (A herbicidal effect or phytotoxicity of 90% or more) | 5 (A herbicidal effect or phytotoxicity of 90% or more) | 5 (A herbicidal effect or phytotoxicity of 90% or more) | 5 (A herbicidal effect or phytotoxicity of 90% or more) | 5 (A herbicidal effect or phytotoxicity of 90% or more) |  | 
O=S(=O)(Cc1c(F)cccc1F)C1=NOC2(CCC2)C1 [Compound 1-382] | 5 (A herbicidal effect or phytotoxicity of 90% or more) | 5 (A herbicidal effect or phytotoxicity of 90% or more) | 5 (A herbicidal effect or phytotoxicity of 90% or more) |  | 5 (A herbicidal effect or phytotoxicity of 90% or more) | 4 (A herbicidal effect or phytotoxicity of 70% to less than 90%) |  | 
CC1(C)CC(S(=O)(=O)Cc2c(Cl)cccc2OCC(F)(F)F)=NO1 [Compound 1-567] |  | 5 (A herbicidal effect or phytotoxicity of 90% or more) | 5 (A herbicidal effect or phytotoxicity of 90% or more) | 4 (A herbicidal effect or phytotoxicity of 70% to less than 90%) |  | 5 (A herbicidal effect or phytotoxicity of 90% or more) | 5 (A herbicidal effect or phytotoxicity of 90% or more) | 5 (A herbicidal effect or phytotoxicity of 90% or more)
CC1(C)CC(S(=O)(=O)Cc2ccccc2OC(F)(F)F)=NO1 [Compound 1-58] | 5 (A herbicidal effect or phytotoxicity of 90% or more) | 5 (A herbicidal effect or phytotoxicity of 90% or more) | 4 (A herbicidal effect or phytotoxicity of 70% to less than 90%) | 5 (A herbicidal effect or phytotoxicity of 90% or more) | 5 (A herbicidal effect or phytotoxicity of 90% or more) | 5 (A herbicidal effect or phytotoxicity of 90% or more) |  | 
CC1(CCl)CC(S(=O)(=O)Cc2ccccc2F)=NO1 (stereo not drawn) [Comparative compound 2, reference compound] |  |  | 1 (A herbicidal effect or phytotoxicity of 10% to less than 30%) |  |  | 1 (A herbicidal effect or phytotoxicity of 10% to less than 30%) |  | 
CCc1ccccc1CS(=O)(=O)C1=NOC(C)(C)C1 [Compound 1-8] | 5 (A herbicidal effect or phytotoxicity of 90% or more) | 5 (A herbicidal effect or phytotoxicity of 90% or more) | 5 (A herbicidal effect or phytotoxicity of 90% or more) | 5 (A herbicidal effect or phytotoxicity of 90% or more) | 5 (A herbicidal effect or phytotoxicity of 90% or more) | 4 (A herbicidal effect or phytotoxicity of 70% to less than 90%) |  | 
Cc1cc(C)c(C)c(CS(=O)(=O)C2=NOC(C)(C)C2)c1C [Compound 1-547] |  | 5 (A herbicidal effect or phytotoxicity of 90% or more) | 5 (A herbicidal effect or phytotoxicity of 90% or more) | 5 (A herbicidal effect or phytotoxicity of 90% or more) |  | 5 (A herbicidal effect or phytotoxicity of 90% or more) | 5 (A herbicidal effect or phytotoxicity of 90% or more) | 5 (A herbicidal effect or phytotoxicity of 90% or more)
CCc1ccccc1CS(=O)(=O)C1=NOC(C)(CCl)C1 (stereo not drawn) [Comparative compound 1, reference compound] |  |  | 1 (A herbicidal effect or phytotoxicity of 10% to less than 30%) |  |  | 1 (A herbicidal effect or phytotoxicity of 10% to less than 30%) |  | 
